From patent publication US20120202690A1, “HERBICIDAL COMPOUNDS” (SYNGENTA LIMITED, priority 2009, published 2012)

Tests used:
Format in all cases: in vivo
[1] = test system: Alopecurus myosuroides (ALOMY); test: Post-emergence biological efficacy, glasshouse, 500 or 1000 g/ha, evaluated after 13 days (100=total damage to plant; 0=no damage to plant); details: Alopecurus myosuroides, 312 h, rate 1,000 g/ha, read-out: Percentage damage caused to weed species, post-emergence, ALOMY
Protocol: (§1) Seeds of Alopecurus myosuroides (ALOMY), Setaria faberi (SETFA), Echinochloa […]), Solanum nigrum (SOLNI), Amaranthus retroflexus (AMARE) and Ipomoea hederaceae (IPOHE) were sown in standard soil in pots. […] The test plants were then grown on under controlled conditions in a glasshouse (at 24/16° C., day/night; 14 hours light; 65% humidity) and watered twice daily. […]

[2] = test system: Echinochloa crusgaffi (ECHCG); test: as above; details: Echinochloa, 312 h, rate 1,000 g/ha, read-out: Percentage damage caused to weed species, post-emergence, ECHCG
Protocol: as §1

[3] = test system: Amaranthus retroflexus (AMARE); test: as above; details: Amaranthus retroflexus, 312 h, rate 1,000 g/ha, read-out: Percentage damage caused to weed species, post-emergence, AMARE
Protocol: as §1

[4] = test system: Setaria faberi (SETFA); test: as above; details: Setaria faberi, 312 h, rate 1,000 g/ha, read-out: Percentage damage caused to weed species, post-emergence, SETFA
Protocol: as §1

[5] = test system: Ipomoea hederaceae (IPOHE); test: as above; details: Ipomoea, 312 h, rate 1,000 g/ha, read-out: Percentage damage caused to weed species, post-emergence, IPOHE
Protocol: as §1

[6] = test system: Solanum nigrum (SOLNI); test: as above; details: Solanum nigrum, 312 h, rate 1,000 g/ha, read-out: Percentage damage caused to weed species, post-emergence, SOLNI
Protocol: as §1

[7] = test system: Alopecurus myosuroides (ALOMY); test: Pre-emergence biological efficacy, glasshouse, 1000 g/ha, evaluated after 13 days (100=total damage to plant; 0=no damage to plant); details: Alopecurus myosuroides, 312 h, rate 1,000 g/ha, read-out: Percentage damage caused to weed species, pre-emergence, ALOMY
Protocol: (§2) Seeds of Alopecurus myosuroides (ALOMY), Setaria faberi (SETFA), Echinochloa crus-galli (ECHCG), Solanum nigrum (SOLNI), Amaranthus retroflexus (AMARE) and Ipomoea hederaceae (IPOHE) were sown in standard soil in pots. […] The test plants were then grown under controlled conditions in the glasshouse (at 24/16° C., day/night; 14 hours light; 65% humidity) and watered twice daily. […]

[8] = test system: Amaranthus retroflexus (AMARE); test: as above; details: Amaranthus retroflexus, 312 h, rate 1,000 g/ha, read-out: Percentage damage caused to weed species, pre-emergence, AMARE
Protocol: as §2

[9] = test system: Setaria faberi (SETFA); test: as above; details: Setaria faberi, 312 h, rate 1,000 g/ha, read-out: Percentage damage caused to weed species, pre-emergence, SETFA
Protocol: as §2

[10] = test system: Ipomoea hederaceae (IPOHE); test: as above; details: Ipomoea, 312 h, rate 1,000 g/ha, read-out: Percentage damage caused to weed species, pre-emergence, IPOHE
Protocol: as §2

[11] = test system: Echinochloa crus-galli (ECHCG); test: as above; details: Echinochloa crus-galli, 312 h, rate 1,000 g/ha, read-out: Percentage damage caused to weed species, pre-emergence, ECHCG
Protocol: as §2

[12] = test system: Solanum nigrum (SOLNI); test: as above; details: Solanum nigrum, 312 h, rate 1,000 g/ha, read-out: Percentage damage caused to weed species, pre-emergence, SOLNI
Protocol: as §2

Row | Structure (SMILES) | pest or weed control at 1000 g/ha [1] | pest or weed control at 1000 g/ha [2] | pest or weed control at 1000 g/ha [3] | pest or weed control at 1000 g/ha [4] | pest or weed control at 1000 g/ha [5] | pest or weed control at 1000 g/ha [6] | pest or weed control at 1000 g/ha [7] | pest or weed control at 1000 g/ha [8] | pest or weed control at 1000 g/ha [9] | pest or weed control at 1000 g/ha [10] | pest or weed control at 1000 g/ha [11] | pest or weed control at 1000 g/ha [12]
1 | COc1c(Cl)ccc(-c2nc(C(=O)O)c3cc(C)[nH]c3n2)c1F [Compound 1-65] | 0% | 40% | 40% | 10% | 60% | 60% | 0% | 0% | 0% | 0% | 0% | 0%
2 | COC(=O)c1nc(-c2ccc(Cl)c(OC)c2F)nc2[nH]c(C)cc12 [Compound 1-66, 2-(4-chloro-2-fluoro-3-methoxyphenyl)-4-methoxycarbonyl-6-methyl-7H-pyrrolo[2,3-d]pyrimidine] | 80% | 80% | 100% | 80% | 80% | 100% | 20% | 100% | 70% | 90% | 40% | 100%
3 | COC(=O)c1nc(-c2ccc(Cl)c(OC)c2F)nc2[nH]c(C)c(C)c12 [Compound 1-68, 2-(4-Chloro-2-fluoro-3-methoxyphenyl)-5,6-dimethyl-4-methoxycarbonyl-7H-pyrrolo[2,3-d]pyrimidine] | 0% | 10% | 10% | 0% | 60% | 30% | 0% | 0% | 0% | 0% | 0% | 0%
4 | CCOC(=O)c1nc(-c2ccc(Cl)c(OC)c2F)nc2[nH]cc(C)c12 [Compound 1-75, 2-(4-Chloro-2-fluoro-3-methoxyphenyl)-4-ethoxycarbonyl-5-methyl-7H-pyrrolo[2,3-d]pyrimidine] | 0% | 0% | 40% | 0% | 70% | 70% | 0% | 0% | 0% | 0% | 0% | 0%
5 | CCCCCCCCOC(=O)c1nc(-c2ccc(Cl)c(OC)c2F)nc2[nH]cc(C)c12 [Compound 1-77, 2-(4-Chloro-2-fluoro-3-methoxyphenyl)-5-methyl-4-(n-octyloxycarbonyl)-7H-pyrrolo[2,3-d]pyrimidine] | 0% | 0% | 10% | 10% | 40% | 70% | 0% | 0% | 10% | 0% | 0% | 10%
